Measurements: patent US6869957B1, “Non-peptide tachykinin receptor antagonists” (Eli Lilly and Company, priority 1993, dated 2005)

Experiments:
human NK-2 receptor = molecular target: T1, human NK-2 receptor (Homo sapiens, UniProt P21452); assay: NK-2 Receptor Binding Assay ([125I]iodohistidyl-neurokinin A, CHO-hNK-2R membranes); conditions: for IC50: inhibits fifty percent of binding of [125I]iodohistidyl-neurokinin A to CHO-hNK-2R membranes
T1 construct: expressed in transfected cells; host or cells: CHO-hNK-2R cells (CHO-derived), membrane preparation
T1 sequence (P21452 1-398): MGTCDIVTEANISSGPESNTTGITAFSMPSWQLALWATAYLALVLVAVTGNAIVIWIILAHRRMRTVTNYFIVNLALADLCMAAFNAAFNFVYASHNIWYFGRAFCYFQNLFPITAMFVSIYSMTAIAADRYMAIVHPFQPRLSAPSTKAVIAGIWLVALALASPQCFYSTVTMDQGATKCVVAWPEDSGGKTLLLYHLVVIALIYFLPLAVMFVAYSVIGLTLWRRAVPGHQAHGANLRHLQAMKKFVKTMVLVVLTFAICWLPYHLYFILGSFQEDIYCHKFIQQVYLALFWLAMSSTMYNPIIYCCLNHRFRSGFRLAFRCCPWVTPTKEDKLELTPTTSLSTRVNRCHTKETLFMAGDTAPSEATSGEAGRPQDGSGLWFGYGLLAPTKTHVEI
Experimental: The biological activity of the compounds of the present invention was evaluated employing an initial screening assay which rapidly and accurately measured the binding of the tested compound to known NK-1 and NK-2 receptor sites. Assays useful for evaluating tachykinin receptor antagonists are well known in the art. See. e.g., J. Jukic, et al., Life Sciences, 49:1463-1469 (1991); N. Kucharczyk, et al., Journal of Medicinal Chemistry, 36:1654-1661 (1993); N. Rouissi, et al., Biochemical and Biophysical Research Communications, 176:894-901 (1991).
NK-2 Receptor Binding Assay
The CHO-hNK-2R cells, a CHO-derived cell line transformed with the human NK-2 receptor, expressing about 400,000 such receptors per cell, were grown in 75 cm^2 flasks or roller bottles in minimal essential medium (alpha modification) with 10% fetal bovine serum. The gene sequence of the human NK-2 receptor is given in N. P. Gerard, et al., Journal of Biological Chemistry, 265:20455-20462 (1990).
For preparation of membranes, 30 confluent roller bottle cultures were dissociated by washing each roller bottle with 10 ml of Dulbecco's phosphate buffered saline (PBS) without calcium and magnesium, followed by addition of 10 ml of enzyme-free cell dissociation solution (PBS-based, from Specialty Media, Inc.). After an additional 15 minutes, the dissociated cells were pooled and centrifuged at 1,000 RPM for 10 minutes in a clinical centrifuge. Membranes were prepared by homogenization of the cell pellets in 300 ml 50 mM Tris buffer, pH 7.4 with a Tekma® homogenizer for 10-15 seconds, followed by centrifugation at 12,000 RPM (20,000×g) for 30 minutes using a Beckman JA-14® rotor. The pellets were washed once using the above procedure. and the final pellets were resuspended in 100-120 ml 50 mM Tris buffer, pH 7.4, and 4 ml aliquots stored frozen at −70° C. The protein concentration of this preparation was 2 mg/ml.
For the receptor binding assay, one 4-ml aliquot of the CHO-hNK-2R membrane preparation was suspended in 40 ml of assay buffer containing 50 mM Tris, pH 7.4, 3 mM manganese chloride, 0.02% bovine serum albumin (BSA) and 4 μg/ml chymostatin. A 200 μl volume of the homogenate (40 μg protein) was used per sample. The radioactive ligand was [^125I]iodohistidyl-neurokinin A (New England Nuclear, NEX-252), 2200 Ci/mmol. The ligand was prepared in assay buffer at 20 nCi per 100 μl; the final concentration in the assay was 20 pM. Non-specific binding was determined using 1 μM eledoisin. Ten concentrations of eledoisin from 0.1 to 1000 nM were used for a standard concentration-response curve.
All samples and standards were added to the incubation in 10 μl dimethylsulfoxide (DMSO) for screening (single dose) or in 5 μl DMSO for IC50 determinations. The order of additions for incubation was 190 or 195 μl assay buffer, 200 μl homogenate, 10 or 5 μl sample in DMSO, 100 μl radioactive ligand. The samples were incubated 1 hr at room temperature and then filtered on a 48 well Brandel cell harvester through GF/B filters which had been presoaked for two hours in 50 mM Tris buffer, pH 7.7, containing 0.5% BSA. The filter was washed 3 times with approximately 3 ml of cold 50 mm Tris buffer, pH 7.7. The filter circles were then punched into 12×75 mm polystyrene tubes and counted in a gamma counter.

NK-1 receptor = molecular target: T2, NK-1 receptor (Homo sapiens, UniProt P25103); assay: NK-1 Receptor Binding Assay (125I-labeled substance P, IM9 cells); conditions: for IC50: inhibits fifty percent of binding of 125I-substance P to IM9 cells
T2 construct: endogenous in cells; host or cells: IM9 cells (human cell line), whole cells
Experimental: The biological activity of the compounds of the present invention was evaluated employing an initial screening assay which rapidly and accurately measured the binding of the tested compound to known NK-1 and NK-2 receptor sites. Assays useful for evaluating tachykinin receptor antagonists are well known in the art.
NK-1 Receptor Binding Assay
Radioreceptor binding assays were performed using a derivative of a previously published protocol.
The IM9 cell line is a well-characterized and readily available human cell line.
The reaction was terminated by filtration through a glass fiber filter harvesting system using filters previously soaked for 20 minutes in 0.1% polyethylenimine. Specific binding of labeled substance P was determined in the presence of 20 nM unlabeled ligand.

T2 sequence (P25103 whole entry): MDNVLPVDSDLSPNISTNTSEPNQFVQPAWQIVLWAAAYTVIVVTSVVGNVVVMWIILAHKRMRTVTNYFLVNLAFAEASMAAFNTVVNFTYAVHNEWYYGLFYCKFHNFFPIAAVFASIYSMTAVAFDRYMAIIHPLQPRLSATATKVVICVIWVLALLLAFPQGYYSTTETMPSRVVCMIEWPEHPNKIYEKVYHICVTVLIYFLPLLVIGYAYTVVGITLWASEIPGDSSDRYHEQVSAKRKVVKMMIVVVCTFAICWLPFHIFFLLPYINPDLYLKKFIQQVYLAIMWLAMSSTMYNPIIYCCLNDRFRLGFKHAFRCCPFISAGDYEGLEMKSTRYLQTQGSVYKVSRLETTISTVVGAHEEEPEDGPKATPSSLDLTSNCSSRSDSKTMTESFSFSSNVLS

IC50 (human NK-2 receptor) | IC50 (NK-1 receptor) | NK-1 percent inhibition of binding (NK-1 receptor; @ 1 μM) | NK-2 percent inhibition of binding (human NK-2 receptor; @ 10 μM) | NK-1 percent inhibition of binding (NK-1 receptor; @ 5 μM) | SMILES
710 nM | – | 47% @ | – | – | COc1ccccc1CNCC(Cc1ccc2ccccc2c1)NC(=O)CN1CCN(c2ccccc2)CC1 (stereo not shown) [Example 136]
420 nM | – | 74% @ | – | – | COc1ccccc1CN(CC(Cc1c[nH]c2ccccc12)NC(C)=O)C(=O)CN1CCN(c2ccccc2)CC1 (stereo not shown) [Example 107]
830 nM | 5.4 nM | – | – | – | COc1ccccc1CN(CC(Cc1c[nH]c2ccccc12)NC(=O)CN1CCN(c2ccc(Cl)cc2)CC1)C(C)=O (stereo not shown) [Example 69]
– | – | 77% @ | 40% @ | – | CC(=O)NC(Cc1c[nH]c2ccccc12)CN(C(C)=O)C(C)c1ccccc1 (stereo not shown) [Example 100]
580 nM | 396 nM | – | – | – | COc1ccccc1CN(CC(NC(=O)CN1CCN(c2ccccc2)CC1)c1ccc(Cl)c(Cl)c1)C(C)=O (stereo not shown) [Example 139]
600 nM | 21 nM | – | – | – | COc1ccccc1CN(CC(Cc1c[nH]c2ccccc12)NC(=O)CCCC(=O)c1ccccc1)C(C)=O (stereo not shown) [Example 98]
930 nM | 58 nM | – | – | – | COc1ccccc1CN(CC(Cc1c[nH]c2ccc(Br)cc12)NC(=O)CN1CCN(c2ccccc2)CC1)C(C)=O (stereo not shown) [Example 116]
> 100000 nM | – | – | – | 13% @ | CC(=O)N(CCc1ccccc1)CC(Cc1c[nH]c2ccccc12)NC(c1ccccc1)(c1ccccc1)c1ccccc1 (stereo not shown) [Example 168]
120 nM | 148 nM | – | – | – | CC(=O)NC(Cc1c[nH]c2ccccc12)CN(CCc1ccccc1)C(=O)CN1CCN(c2ccccc2)CC1 (stereo not shown) [Example 110]
760 nM | 85 nM | – | – | – | COc1ccccc1CN(CC(Cc1c[nH]c2ccccc12)NC(=O)CCCc1ccccc1)C(C)=O (stereo not shown) [Example 94]
430 nM | – | 75% @ | – | – | COc1ccccc1CNCC(Cc1cccc2ccccc12)NC(=O)CN1CCN(c2ccccc2)CC1 (stereo not shown) [Example 135]
3800 nM | 450 nM | – | – | – | CN(CC(Cc1c[nH]c2ccccc12)NC(=O)CN1CCN(C2CCCCC2)CC1)C(=O)c1ccccc1 (stereo not shown) [Example 158]
3400 nM | 19 nM | – | – | – | CCOC(=O)N1CCN(CC(=O)NC(Cc2c[nH]c3ccccc23)CN(Cc2ccccc2OC)C(C)=O)CC1 (stereo not shown) [Example 80]
830 nM | 8.6 nM | – | – | – | COc1ccccc1CN(CC(Cc1ccc2ccccc2c1)NC(=O)CN1CCN(c2ccccc2)CC1)C(C)=O (stereo not shown) [Example 142]
10400 nM | – | – | – | 3% @ 5 μM | CCCCN(CC(Cc1c[nH]c2ccccc12)NC(c1ccccc1)(c1ccccc1)c1ccccc1)C(C)=O (stereo not shown) [Example 165]
5200 nM | 8.4 nM | – | – | – | COc1ccccc1CN(CC(Cc1c[nH]c2ccccc12)NC(=O)CNCc1ccncc1)C(C)=O (stereo not shown) [Example 83]
1900 nM | 76 nM | – | – | – | COc1ccccc1CN(CC(CC1CN(C(C)=O)c2ccccc21)NC(=O)CN1CCN(c2ccccc2)CC1)C(C)=O (mixture of isomers) [Example 145]
430 nM | 196 nM | – | – | – | COc1ccccc1CN(CC(NC(=O)CN1CCC(N2CCCCC2)CC1)c1ccc(Cl)c(Cl)c1)C(C)=O (stereo not shown) [Example 147]
5600 nM | 120 nM | – | – | – | COc1ccccc1CN(CC(Cc1c[nH]c2ccccc12)NC(=O)c1ccccc1)C(C)=O (stereo not shown) [Example 88]
2000 nM | 190 nM | – | – | – | CC(=O)NC(Cc1c[nH]c2ccccc12)CN(Cc1ccccc1Cl)C(=O)CN1CCC(N2CCCCC2)CC1 (stereo not shown) [Example 109]

The next lines start with the compound.

SMILES | IC50 (human NK-2 receptor) | IC50 (NK-1 receptor) | NK-1 percent inhibition of binding (NK-1 receptor; @ 1 μM) | NK-2 percent inhibition of binding (human NK-2 receptor; @ 10 μM) | NK-1 percent inhibition of binding (NK-1 receptor; @ 5 μM)
COc1ccccc1CN(C[C@@H](Cc1c[nH]c2ccccc12)NC(=O)CN1CCN(C2CCCCC2)CC1)C(C)=O [Example 75, (R)-1-[N-(2-methoxybenzyl)acetylamino]-3-(1H-indol-3-yl)-2-[N-(2-((4-cyclohexyl)piperazin-1-yl)acetyl)amino]propane] | 850 nM | 0.18 nM | – | – | –
CCN(Cc1ccccc1OC)CC(Cc1c[nH]c2ccccc12)NC(=O)CN1CCN(c2ccccc2)CC1 (stereo not shown) [Example 9] | 640 nM | 84 nM | – | – | –
COc1ccccc1CN(CC(Cc1c[nH]c2ccccc12)NC(=O)CN1CCN(c2ccccc2)CC1)C(=O)CO (stereo not shown) [Example 33] | 670 nM | 1.9 nM | – | – | –
CCOC(=O)N(Cc1ccccc1OC)CC(Cc1c[nH]c2ccccc12)NC(=O)CN1CCN(c2ccccc2)CC1 (stereo not shown) [Example 28, 1-[N-ethoxycarbonyl-N-(2-methoxybenzyl)amino]-3-(1H-indol-3-yl)-2-[N-(2-((4-phenyl)piperazin-1-yl)acetyl)amino]propane] | 1000 nM | 1.7 nM | – | – | –
CC(=O)N(CCc1ccccc1)CC(Cc1c[nH]c2ccccc12)NC(=O)CN1CCN(c2ccccc2)CC1 (stereo not shown) [Example 43] | 39 nM | 179 nM | – | – | –
CNC(=O)N(Cc1ccccc1OC)CC(Cc1c[nH]c2ccccc12)NC(=O)CN1CCN(c2ccccc2)CC1 (stereo not shown) [Example 29, 3-(1H-indol-3-yl)-1-[N-(2-methoxybenzyl)-N-(methylaminocarbonyl)amino]-2-[N-(2-((4-phenyl)piperazin-1-yl)acetyl)amino]propane] | 1500 nM | 1.5 nM | – | – | –
COc1ccccc1CN(CC(Cc1c[nH]c2ccccc12)NC(=O)CN1CCN(c2ccccc2)CC1)C(=O)CN (stereo not shown) [Example 34] | 590 nM | 6.2 nM | – | – | –
CC(=O)N(Cc1ccccc1)CC(Cc1c[nH]c2ccccc12)NC(=O)CN1CCN(c2ccccc2)CC1 (stereo not shown) [Example 12] | 1600 nM | 1.6 nM | – | – | –
COc1ccccc1CN(CC(Cc1c[nH]c2ccccc12)NC(=O)CN1CCN(c2ccccc2)CC1)C(=O)c1ccccc1 (stereo not shown) [Example 27] | 710 nM | 1.6 nM | – | – | –
COc1ccccc1CN(CC(Cc1c[nH]c2ccccc12)NC(=O)CN1CCC(NC(C)=O)(c2ccccc2)CC1)C(C)=O (stereo not shown) [Example 68] | 2400 nM | 0.41 nM | – | – | –
COc1ccccc1CN(CC(Cc1c[nH]c2ccccc12)NC(=O)CN1CCN(c2ccccc2)CC1)S(C)(=O)=O (stereo not shown) [Example 37] | 600 nM | 4.2 nM | – | – | –
COc1ccccc1CN(CC(Cc1c[nH]c2ccccc12)NC(=O)CN1CCCCC1)C(C)=O (stereo not shown) [Example 60] | 3900 nM | 24 nM | – | – | –
COc1ccccc1CN(C=O)CC(Cc1c[nH]c2ccccc12)NC(=O)CN1CCN(c2ccccc2)CC1 (stereo not shown) [Example 24] | 640 nM | 1.2 nM | – | – | –
CC(=O)N(C)CC(Cc1c[nH]c2ccccc12)NC(=O)CN1CCN(c2ccccc2)CC1 (stereo not shown) [Example 38] | 8000 nM | – | – | – | 30% @
CC(=O)N(Cc1ccccc1)CC(Cc1c[nH]c2ccccc12)NC(=O)CN1CCC(N2CCCCC2)CC1 (stereo not shown) [Example 46] | 2400 nM | 2.2 nM | – | – | –
